Measured values taken from US20090214498A1, “ANTIMICROBIAL PEPTIDES AND BACTERIAL STRAINS THAT PRODUCE THEM” (TEAGASC- NATIONAL DIARY PRODUCTS RESEARCH CENTRE, priority 2005, published 2009).
Converted amounts (≈) assume the structure as drawn. “And” between values parts separate entries of the source, which are not always exact repeats. Equal values may be shown once. Residues, ends and D or L forms follow the SMILES beside them.

Assays:
E. coli DPC6053 [1] = assay: 96-well plate assay (OD600), MIC; assay type: cell-based, Escherichia coli; details: for minimum inhibitory concentration (MIC): E. coli DPC6053, 6 h at 37° C., OD600
Procedure: (§1) Preliminary characterisation of the antibacterial activity of peptides and fractions synthesised involved measurement of growth inhibition in a 96-well plate assay (1, 10) and utilisation of an agar diffusion method (16,39). […] A control without bacteria (sterility control) was also included. The plates were incubated for 6 h at 37° C. and culture growth monitored hourly. Minimum inhibitory concentrations (MIC's) were taken as the lowest concentration without visible growth, measured by recording the OD600, in a micro-titre plate reader. A well diffusion assay (16, 40) was used to detect antibacterial activity of purified and chemically synthesised peptides. These assays were performed in either Brain Heart Infusion (BHI), Luria Bertani (LB) or Nutrient agar (NA) seeded with 1 ml of an overnight culture of the indicator strains E. coli DPC6053, L. innocua DPC3306, E. sakazakii 5920 (ATCC12868) or E. sakazakii 8272 (NCTC8155) respectively. Wells, 4.6 mm in diameter, were cut into these agar plates, and 30 μl (0.162 mg/ml) of the peptide fraction placed in each well. Plates were stored at 4° C. for 4 h to permit radial diffusion of the peptide, incubated at 30° C. anaerobically or 37° C. aerobically for 24 h, and examined for zones of inhibition. The sensitivity of a strain to the peptides was scored according to the diameter of the zone of inhibition surrounding the well. The experiments were performed in triplicate and mean zone size calculated.

[2] = system: Lactobacillus bulgaricus ATCC11842 DPC5383; assay: agar well diffusion assay, L. bulgaricus DPC5383; assay type: cell-based; design: key: +++: Zone of inhibition >2.0 cm in diameter produced.; ++: Zone of inhibition >1.5 cm in diameter produced.; +: Zone of inhibition >1.0 cm in diameter produced.; −: No zone detected; details: pure synthesised peptide
E. coli DPC6053 [3] = assay: agar well diffusion assay, E. coli DPC6053; assay type: cell-based, Escherichia coli JM109; design: key to zone of inhibition (inhibitory spectrum): +++: Zone of inhibition >2.0 cm in diameter produced.; ++: Zone of inhibition >1.5 cm in diameter produced.; +: Zone of inhibition >1.0 cm in diameter produced.; −: No zone detected; details: for zone of inhibition (inhibitory spectrum): Escherichia coli JM109 DPC6053, pure synthesised peptide; for concentration at which the indicator organism was inhibited: agar well-diffusion assay
Procedure: as §1

[4] = system: E. sakazakii 5920 (ATCC12868); assay: agar well diffusion assay, E. sakazakii 5920; assay type: cell-based, Enterobacter sakazakii; design: key to zone of inhibition (inhibitory spectrum): +++: Zone of inhibition >2.0 cm in diameter produced.; ++: Zone of inhibition >1.5 cm in diameter produced.; +: Zone of inhibition >1.0 cm in diameter produced.; −: No zone detected; details: for zone of inhibition (inhibitory spectrum): Enterobacter sakazakii ATCC12868 DPC6090, pure synthesised peptide
Procedure: as §1

[5] = system: Streptococcus mutans DPC4069; assay: agar well diffusion assay, S. mutans DPC4069; assay type: cell-based; design: key: +++: Zone of inhibition >2.0 cm in diameter produced.; ++: Zone of inhibition >1.5 cm in diameter produced.; +: Zone of inhibition >1.0 cm in diameter produced.; −: No zone detected; details: pure synthesised peptide
E. coli O157:H7 DPC6054 = assay: agar well diffusion assay, E. coli O157:H7 DPC6054; assay type: cell-based, Escherichia coli; design: key to zone of inhibition (inhibitory spectrum): +++: Zone of inhibition >2.0 cm in diameter produced.; ++: Zone of inhibition >1.5 cm in diameter produced.; +: Zone of inhibition >1.0 cm in diameter produced.; −: No zone detected; details: for zone of inhibition (inhibitory spectrum): E. coli O157:H7 DPC6054, pure synthesised peptide
E. coli O157:H7 DPC6055 = assay: agar well diffusion assay, E. coli O157:H7 DPC6055; assay type: cell-based, Escherichia coli; design: key to zone of inhibition (inhibitory spectrum): +++: Zone of inhibition >2.0 cm in diameter produced.; ++: Zone of inhibition >1.5 cm in diameter produced.; +: Zone of inhibition >1.0 cm in diameter produced.; −: No zone detected; details: for zone of inhibition (inhibitory spectrum): E. coli O157:H7 DPC6055, pure synthesised peptide
L. innocua DPC3306 = assay: agar well diffusion assay, L. innocua DPC3306; assay type: cell-based; details: Listeria innocua DPC3306; for zone of inhibition (inhibitory spectrum): pure synthesised peptide
Procedure: as §1

E. coli DPC6053 [6] = assay: susceptibility to proteinase K, agar well diffusion assay; assay type: cell-based, Escherichia coli; details: proteinase K 2050 U/ml, 1:1 volume ratio, 4° C., 6 h
Procedure: Plates were incubated at 37° C. for 24 h. The positive controls used were the peptides isracidin (Peptide Protein Research Ltd.) and Cecropin P1 (Sigma TM).

[7] = system: Staphylococcus aureus DPC5246; assay: agar well diffusion assay, S. aureus DPC5246; assay type: cell-based; design: key: +++: Zone of inhibition >2.0 cm in diameter produced.; ++: Zone of inhibition >1.5 cm in diameter produced.; +: Zone of inhibition >1.0 cm in diameter produced.; −: No zone detected; details: pure synthesised peptide
[8] = system: E. sakazakii 8272 (NCTC8155); assay: agar well diffusion assay, E. sakazakii 8272; assay type: cell-based, Enterobacter sakazakii; design: key to zone of inhibition (inhibitory spectrum): +++: Zone of inhibition >2.0 cm in diameter produced.; ++: Zone of inhibition >1.5 cm in diameter produced.; +: Zone of inhibition >1.0 cm in diameter produced.; −: No zone detected; details: for zone of inhibition (inhibitory spectrum): E. sakazakii NCTC8155 DPC6091, pure synthesised peptide
Procedure: as §1

[9] = system: lactobacilli and other Gram-positive bacteria; details: Floris et al. 2003; cited from earlier work
[10] = system: S. aureus, Streptococcus pyogenes and L. monocytogenes; details: doses as low as; cited from earlier work

Molecule | zone of inhibition (inhibitory spectrum) [2] | zone of inhibition (inhibitory spectrum) (E. coli DPC6053 [3]) | concentration at which the indicator organism was inhibited (E. coli DPC6053 [3]; E. coli DPC6053) | zone of inhibition (inhibitory spectrum) [4] | zone of inhibition (inhibitory spectrum) [5] | zone of inhibition (inhibitory spectrum) (E. coli O157:H7 DPC6054) | zone of inhibition (inhibitory spectrum) (E. coli O157:H7 DPC6055) | zone of inhibition (inhibitory spectrum) (L. innocua DPC3306) | antimicrobial activity after treatment with proteinase K (E. coli DPC6053 [6]) | minimum inhibitory concentration (MIC) (E. coli DPC6053 [1]) | zone of inhibition (inhibitory spectrum) [7] | zone of inhibition (inhibitory spectrum) [8] | further results
CC[C@H](C)[C@H](NC(=O)CNC(=O)[C@H](CCC(=O)O)NC(=O)[C@H](CO)NC(=O)[C@@H](NC(=O)[C@H](CCCNC(=N)N)NC(=O)[C@H](CCCCN)NC(=O)[C@H](CCCCN)NC(=O)[C@H](C)NC(=O)[C@H](CO)NC(=O)[C@H](CC(N)=O)NC(=O)[C@H](CCC(=O)O)NC(=O)[C@H](CC(C)C)NC(=O)[C@H](CCCCN)NC(=O)[C@H](CCCCN)NC(=O)[C@H](C)NC(=O)[C@@H](NC(=O)[C@H](CCCCN)NC(=O)[C@H](CO)NC(=O)[C@H](CC(C)C)NC(=O)[C@H](Cc1c[nH]c2ccccc12)NC(=O)[C@@H](N)CO)[C@@H](C)O)[C@@H](C)CC)C(=O)N[C@@H](C)C(=O)N[C@H](C(=O)N[C@@H](C)C(=O)N[C@H](C(=O)N[C@@H](CCC(N)=O)C(=O)NCC(=O)NCC(=O)N1CCC[C@H]1C(=O)N[C@@H](CCCNC(=N)N)C(=O)O)[C@@H](C)CC)[C@@H](C)CC [Cecropin P1] (H-SWLSKTAKKLENSAKKRISEGIAIAIQGGPR-OH) |  |  |  |  |  |  |  |  |  |  |  |  | MIC of commercially available control peptides (E. coli DPC6053 [1]; strain not given): 50 µM
CC[C@H](C)[C@H](N)C(=O)N[C@@H](CCCCN)C(=O)N[C@@H](Cc1c[nH]cn1)C(=O)N[C@@H](CCC(N)=O)C(=O)NCC(=O)N[C@@H](CC(C)C)C(=O)N1CCC[C@H]1C(=O)N[C@@H](CCC(N)=O)C(=O)N[C@@H](CCC(=O)O)C(=O)O [SEQ ID NO: 1] (H-IKHQGLPQE-OH; N-terminus and C-terminus assumed) | +++ (Zone of inhibition >2.0 cm in diameter produced.) | +++ (Zone of inhibition >2.0 cm in diameter produced.) | 0.05 mM | +++ (Zone of inhibition >2.0 cm in diameter produced.) | ++ (Zone of inhibition >1.5 cm in diameter produced.) | +++ (Zone of inhibition >2.0 cm in diameter produced.) | +++ (Zone of inhibition >2.0 cm in diameter produced.) | ++ (Zone of inhibition >1.5 cm in diameter produced.) | lose their antibacterial activity | 78 µM (≈ 81.8 µg/mL) | − | +++ (Zone of inhibition >2.0 cm in diameter produced.) | concentration at which inhibition was shown ([4]; agar well-diffusion assay, E. sakazakii 5920 (ATCC12868)): 0.05 mM; concentration at which inhibition was shown (E. coli O157:H7 DPC6054; agar well-diffusion assay, E. coli DPC6054 (O157:H7 derivative)): 0.05 mM; concentration at which inhibition was shown (E. coli O157:H7 DPC6055; agar well-diffusion assay, E. coli DPC6055 (O157:H7 derivative)): 0.05 mM
CC(C)C[C@H](NC(=O)[C@H](CC(C)C)NC(=O)[C@H](CC(N)=O)NC(=O)[C@H](CCC(=O)O)NC(=O)[C@H](CC(N)=O)NC(=O)[C@H](CC(C)C)NC(=O)[C@@H](N)C(C)C)C(=O)N[C@@H](CCCNC(=N)N)C(=O)O [SEQ ID NO: 3] (H-VLNENLLR-OH; N-terminus and C-terminus assumed) | +++ (Zone of inhibition >2.0 cm in diameter produced.) | +++ (Zone of inhibition >2.0 cm in diameter produced.) | 0.22 mM | +++ (Zone of inhibition >2.0 cm in diameter produced.) | ++ (Zone of inhibition >1.5 cm in diameter produced.) | +++ (Zone of inhibition >2.0 cm in diameter produced.) | +++ (Zone of inhibition >2.0 cm in diameter produced.) | ++ (Zone of inhibition >1.5 cm in diameter produced.) | lose their antibacterial activity | 220 µM (≈ 213 µg/mL) | − | +++ (Zone of inhibition >2.0 cm in diameter produced.) | concentration at which inhibition was shown ([8]; agar well-diffusion assay, E. sakazakii DPC6091): 0.22 mM
CC[C@H](C)[C@H](NC(=O)[C@@H]1CCCN1C(=O)[C@H](Cc1cnc[nH]1)NC(=O)[C@H](CCCCN)NC(=O)[C@@H]1CCCN1C(=O)[C@@H](N)CCCNC(=N)N)C(=O)N[C@@H](CCCCN)C(=O)N[C@@H](Cc1cnc[nH]1)C(=O)N[C@@H](CCC(N)=O)C(=O)NCC(=O)N[C@@H](CC(C)C)C(=O)N1CCC[C@H]1C(=O)N[C@@H](CCC(N)=O)C(=O)N[C@@H](CCC(=O)O)C(=O)N[C@H](C(=O)N[C@@H](CC(C)C)C(=O)N[C@@H](CC(N)=O)C(=O)N[C@@H](CCC(=O)O)C(=O)N[C@@H](CC(N)=O)C(=O)N[C@@H](CC(C)C)C(=O)N[C@@H](CC(C)C)C(=O)N[C@@H](CCCNC(=N)N)C(=O)N[C@@H](Cc1ccccc1)C(=O)O)C(C)C [isracidin, Isracidin] (H-RPKHPIKHQGLPQEVLNENLLRF-OH) |  |  |  |  |  |  |  |  |  | 50 µM and 59 µM |  |  | concentration inhibiting in vitro growth [9]: 0.1 to 1 mg/mL; dose with strong protective effect [10]: 10 μg per mouse
SDIPNPIGSENSEK (Strain DPC6026; listed as Lactobacillus acidophilus) [SEQ ID NO: 2, peptide of bovine αs1-casein f(183-207), found in fraction A1-49, chemically synthesised] | − | − |  | − | − | − | − | + (Zone of inhibition >1.0 cm in diameter produced.) | lose their antibacterial activity |  | − | − | inhibitory / antimicrobial activity (in words) (E. coli DPC6053 [3]; E. coli DPC6053, crude fermentates: 96-well plate assay or well diffusion assay): no activity; inhibitory / antimicrobial activity (in words) (L. innocua DPC3306; crude fermentates: 96-well plate assay or well diffusion assay): some inhibitory activity
